Where a name gives a salt, the structure may show the parent alone.
How the values were obtained:
Conditions in all cases: exposure time: 72 h
E21 [1] = patient-derived glioblastoma stem cells of mesenchymal subtype; test: phenotypic distance (Euclidean, principal components) from DMSO controls (arbitrary units); higher = stronger morphological change
E28 [2] = patient-derived glioblastoma stem cells of classical subtype; test: as above
FT3469 [3] = normal neural stem cell line; test: as above
E31 [4] = patient-derived glioblastoma stem cells of proneural subtype; test: as above
E57 [5] = patient-derived glioblastoma stem cells of mesenchymal subtype; test: as above
E13 [6] = patient-derived glioblastoma stem cells of classical subtype; test: as above
E34 [7] = patient-derived glioblastoma stem cells of proneural subtype; test: as above
E21 [8] = test: surviving fraction (nuclei count normalised to DMSO); higher = more cells surviving (less toxic)
E28 [9] = test: as above
FT3469 [10] = test: as above
E31 [11] = test: as above
E57 [12] = test: as above
E13 [13] = test: as above
E34 [14] = test: as above
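Throughout, for phenotypic distance (Euclidean, principal components) from DMSO controls: cell Painting imaging in 384-well plates, CellProfiler features reduced to at least 20 principal components, Euclidean distance versus same-plate DMSO vehicle wells (0.1% v/v), median over six images per well.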
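Throughout, for surviving fraction (nuclei count normalised to DMSO): nuclei counted by high-content imaging of Hoechst-stained cells in laminin-coated 384-well plates, relative to 0.1% DMSO vehicle wells, with staurosporine as cell-death control.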

Nc1ccn([C@@H]2O[C@H](CO)[C@@H](O)C2(F)F)c(=O)n1 [Gemcitabine HCl]
Conditions	phenotypic distance	surviving fraction
E13 [6], 4.1 nM	5.82	–
E13 [6], 12.3 nM	5.84	–
E13 [6], 37 nM	5.64	–
E13 [6], 111.1 nM	4.94	–
E13 [6], 333.3 nM	6.22	–
E13 [6], 1000 nM	5.7	–
E13 [6], 3000 nM	5.74	–
E13 [13], 4.1 nM	–	0.327
E13 [13], 12.3 nM	–	0.326
E13 [13], 37 nM	–	0.331
E13 [13], 111.1 nM	–	0.351
E13 [13], 333.3 nM	–	0.32
E13 [13], 1000 nM	–	0.333
E13 [13], 3000 nM	–	0.352
E21 [1], 4.1 nM	4.04	–
E21 [1], 12.3 nM	4.48	–
E21 [1], 37 nM	4.76	–
E21 [1], 111.1 nM	5.02	–
E21 [1], 333.3 nM	4.71	–
E21 [1], 1000 nM	4.97	–
E21 [1], 3000 nM	4.67	–
E21 [8], 4.1 nM	–	0.161
E21 [8], 12.3 nM	–	0.173
E21 [8], 37 nM	–	0.126
E21 [8], 111.1 nM	–	0.143
E21 [8], 333.3 nM	–	0.147
E21 [8], 1000 nM	–	0.129
E21 [8], 3000 nM	–	0.0999
E28 [2], 4.1 nM	3.94	–
E28 [2], 12.3 nM	3.54	–
E28 [2], 37 nM	3.74	–
E28 [2], 111.1 nM	3.43	–
E28 [2], 333.3 nM	3.31	–
E28 [2], 1000 nM	3.19	–
E28 [2], 3000 nM	4.17	–
E28 [9], 4.1 nM	–	0.359
E28 [9], 12.3 nM	–	0.438
E28 [9], 37 nM	–	0.376
E28 [9], 111.1 nM	–	0.456
E28 [9], 333.3 nM	–	0.401
E28 [9], 1000 nM	–	0.361
E28 [9], 3000 nM	–	0.264
E31 [4], 4.1 nM	3.35	–
E31 [4], 12.3 nM	2.57	–
E31 [4], 37 nM	3.01	–
E31 [4], 111.1 nM	2.66	–
E31 [4], 333.3 nM	2.37	–
E31 [4], 1000 nM	3	–
E31 [4], 3000 nM	3.64	–
E31 [11], 4.1 nM	–	0.147
E31 [11], 12.3 nM	–	0.249
E31 [11], 37 nM	–	0.161
E31 [11], 111.1 nM	–	0.229
E31 [11], 333.3 nM	–	0.201
E31 [11], 1000 nM	–	0.199
E31 [11], 3000 nM	–	0.161
E34 [7], 4.1 nM	3.49	–
E34 [7], 12.3 nM	2.98	–
E34 [7], 37 nM	3.41	–
E34 [7], 111.1 nM	4.74	–
E34 [7], 333.3 nM	3.17	–
E34 [7], 1000 nM	2.85	–
E34 [7], 3000 nM	2.83	–
E34 [14], 4.1 nM	–	0.494
E34 [14], 12.3 nM	–	0.545
E34 [14], 37 nM	–	0.509
E34 [14], 111.1 nM	–	0.52
E34 [14], 333.3 nM	–	0.549
E34 [14], 1000 nM	–	0.496
E34 [14], 3000 nM	–	0.415
E57 [5], 4.1 nM	6.66	–
E57 [5], 12.3 nM	8.21	–
E57 [5], 37 nM	6.89	–
E57 [5], 111.1 nM	7.27	–
E57 [5], 333.3 nM	7.04	–
E57 [5], 1000 nM	7.07	–
E57 [5], 3000 nM	6.77	–
E57 [12], 4.1 nM	–	0.168
E57 [12], 12.3 nM	–	0.168
E57 [12], 37 nM	–	0.156
E57 [12], 111.1 nM	–	0.165
E57 [12], 333.3 nM	–	0.139
E57 [12], 1000 nM	–	0.159
E57 [12], 3000 nM	–	0.149
FT3469 [3], 4.1 nM	1.82	–
FT3469 [3], 12.3 nM	1.99	–
FT3469 [3], 37 nM	2.01	–
FT3469 [3], 111.1 nM	2.15	–
FT3469 [3], 333.3 nM	1.98	–
FT3469 [3], 1000 nM	1.8	–
FT3469 [3], 3000 nM	1.5	–
FT3469 [10], 4.1 nM	–	0.53
FT3469 [10], 12.3 nM	–	0.842
FT3469 [10], 37 nM	–	0.616
FT3469 [10], 111.1 nM	–	0.663
FT3469 [10], 333.3 nM	–	0.566
FT3469 [10], 1000 nM	–	0.568
FT3469 [10], 3000 nM	–	0.645

COc1cc2ncnc(Nc3cccc(Br)c3)c2cc1OC
Conditions	phenotypic distance	surviving fraction
E13 [6], 4.1 nM	3.14	–
E13 [6], 12.3 nM	0.603	–
E13 [6], 37 nM	1.05	–
E13 [6], 111.1 nM	4.7	–
E13 [6], 333.3 nM	3.33	–
E13 [6], 1000 nM	1.72	–
E13 [6], 3000 nM	1.27	–
E13 [13], 4.1 nM	–	0.967
E13 [13], 12.3 nM	–	1.02
E13 [13], 37 nM	–	0.972
E13 [13], 111.1 nM	–	0.952
E13 [13], 333.3 nM	–	1.14
E13 [13], 1000 nM	–	1.04
E13 [13], 3000 nM	–	0.903
E21 [1], 4.1 nM	0.609	–
E21 [1], 12.3 nM	1.01	–
E21 [1], 37 nM	0.8	–
E21 [1], 111.1 nM	3.3	–
E21 [1], 333.3 nM	0.937	–
E21 [1], 1000 nM	1.35	–
E21 [1], 3000 nM	5.43	–
E21 [8], 4.1 nM	–	1.02
E21 [8], 12.3 nM	–	0.921
E21 [8], 37 nM	–	0.943
E21 [8], 111.1 nM	–	0.867
E21 [8], 333.3 nM	–	1.06
E21 [8], 1000 nM	–	0.88
E21 [8], 3000 nM	–	0.346
E28 [2], 4.1 nM	0.79	–
E28 [2], 12.3 nM	0.832	–
E28 [2], 37 nM	0.627	–
E28 [2], 111.1 nM	1.04	–
E28 [2], 333.3 nM	1.13	–
E28 [2], 1000 nM	1.23	–
E28 [2], 3000 nM	0.966	–
E28 [9], 4.1 nM	–	1.07
E28 [9], 12.3 nM	–	0.99
E28 [9], 37 nM	–	0.899
E28 [9], 111.1 nM	–	0.898
E28 [9], 333.3 nM	–	0.963
E28 [9], 1000 nM	–	0.944
E28 [9], 3000 nM	–	0.918
E31 [4], 4.1 nM	0.794	–
E31 [4], 12.3 nM	0.613	–
E31 [4], 37 nM	0.892	–
E31 [4], 111.1 nM	0.732	–
E31 [4], 333.3 nM	1.01	–
E31 [4], 1000 nM	0.889	–
E31 [4], 3000 nM	1.3	–
E31 [11], 4.1 nM	–	1.05
E31 [11], 12.3 nM	–	0.755
E31 [11], 37 nM	–	0.826
E31 [11], 111.1 nM	–	0.837
E31 [11], 333.3 nM	–	0.877
E31 [11], 1000 nM	–	0.767
E31 [11], 3000 nM	–	0.97
E34 [7], 4.1 nM	0.973	–
E34 [7], 12.3 nM	0.835	–
E34 [7], 37 nM	1.15	–
E34 [7], 111.1 nM	1.03	–
E34 [7], 333.3 nM	1.14	–
E34 [7], 1000 nM	1.16	–
E34 [7], 3000 nM	2.27	–
E34 [14], 4.1 nM	–	1.05
E34 [14], 12.3 nM	–	0.884
E34 [14], 37 nM	–	1.07
E34 [14], 111.1 nM	–	1.12
E34 [14], 333.3 nM	–	0.965
E34 [14], 1000 nM	–	1.07
E34 [14], 3000 nM	–	0.81
E57 [5], 4.1 nM	0.927	–
E57 [5], 12.3 nM	1.19	–
E57 [5], 37 nM	1.4	–
E57 [5], 111.1 nM	1.37	–
E57 [5], 333.3 nM	1.71	–
E57 [5], 1000 nM	1.59	–
E57 [5], 3000 nM	1.98	–
E57 [12], 4.1 nM	–	0.926
E57 [12], 12.3 nM	–	0.974
E57 [12], 37 nM	–	0.909
E57 [12], 111.1 nM	–	0.83
E57 [12], 333.3 nM	–	0.818
E57 [12], 1000 nM	–	0.793
E57 [12], 3000 nM	–	0.656
FT3469 [3], 4.1 nM	0.686	–
FT3469 [3], 12.3 nM	0.611	–
FT3469 [3], 37 nM	0.986	–
FT3469 [3], 111.1 nM	0.512	–
FT3469 [3], 333.3 nM	0.982	–
FT3469 [3], 1000 nM	0.82	–
FT3469 [3], 3000 nM	1.29	–
FT3469 [10], 4.1 nM	–	0.879
FT3469 [10], 12.3 nM	–	0.996
FT3469 [10], 37 nM	–	0.905
FT3469 [10], 111.1 nM	–	0.858
FT3469 [10], 333.3 nM	–	1.05
FT3469 [10], 1000 nM	–	1.04
FT3469 [10], 3000 nM	–	1.06

Source: the supplement of paper PMC13207355
